ChEMBL document CHEMBL5244277, “A review upon medicinal perspective and designing rationale of DPP-4 inhibitors” (Bioorg Med Chem, 2021)
In brackets after ≈: the same amount, converted by molar mass. Values belong to the compound of their own block, whether it stands above or below them.

Tests used:
[1] = system: Mus musculus; experiment: Antidiabetic activity in ICR mouse assessed as decrease in AUC of glucose at 3 mg/kg, po; type: functional; parameters: scale not given: the % may be the effect or the level left
[2] = biological target: T1, Dipeptidyl peptidase 4 (Homo sapiens, UniProt P27487)
Target sequence in this assay (P27487 whole entry): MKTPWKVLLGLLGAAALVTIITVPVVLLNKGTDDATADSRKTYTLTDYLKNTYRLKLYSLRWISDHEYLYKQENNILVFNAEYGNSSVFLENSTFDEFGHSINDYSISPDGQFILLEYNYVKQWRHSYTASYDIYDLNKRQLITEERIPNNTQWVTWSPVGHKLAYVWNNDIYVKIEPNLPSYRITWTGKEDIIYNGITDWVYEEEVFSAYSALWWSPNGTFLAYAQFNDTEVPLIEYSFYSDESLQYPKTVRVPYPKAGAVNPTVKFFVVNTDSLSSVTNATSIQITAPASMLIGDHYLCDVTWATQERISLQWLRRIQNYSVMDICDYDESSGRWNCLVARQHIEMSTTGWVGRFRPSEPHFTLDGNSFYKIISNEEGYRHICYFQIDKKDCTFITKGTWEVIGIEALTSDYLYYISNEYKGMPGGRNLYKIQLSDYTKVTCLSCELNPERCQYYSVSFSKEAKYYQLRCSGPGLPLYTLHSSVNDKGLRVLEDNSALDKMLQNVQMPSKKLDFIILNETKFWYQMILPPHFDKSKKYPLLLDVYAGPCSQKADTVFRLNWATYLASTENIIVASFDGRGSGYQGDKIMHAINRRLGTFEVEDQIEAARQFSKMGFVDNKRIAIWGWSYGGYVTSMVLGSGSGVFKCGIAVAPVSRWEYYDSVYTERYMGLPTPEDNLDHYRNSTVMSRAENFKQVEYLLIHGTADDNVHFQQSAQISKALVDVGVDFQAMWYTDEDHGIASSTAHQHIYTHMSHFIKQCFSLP

[3] = system: Mus musculus; experiment: Antidiabetic activity in ICR mouse assessed as decrease in AUC of glucose at 10 mg/kg, po; type: functional; parameters: scale not given: the % may be the effect or the level left
[4] = biological target: T1, Dipeptidyl peptidase 4; experiment: Inhibition of human recombinant DPP-4 at 25 uM using Gly-Pro-Aminomethylcoumarin as substrate by Spectra max fluorometer analysis relative to control
Target sequence in this assay (P27487 whole entry, looked up): as the sequence (P27487 whole entry) above

[5] = biological target: T1, Dipeptidyl peptidase 4; type: cell-based, Caco-2
Target sequence in this assay (P27487 whole entry): as above

[6] = biological target: T1, Dipeptidyl peptidase 4; experiment: Inhibition of human recombinant DPP-4 at 100 uM using Gly-Pro-Aminomethylcoumarin as substrate by Spectra max fluorometer analysis relative to control
Target sequence in this assay (P27487 whole entry, looked up): as the sequence (P27487 whole entry) above

[7] = system: Rattus norvegicus; experiment: Antihyperglycemic activity in STZ-induced diabetic rat model assessed as reduction in blood glucose level at 100 mg/kg, po measured upto 24 hrs; type: functional; parameters: scale not given: the % may be the effect or the level left
[8] = Antioxidant activity assessed as DPPH radical scavenging activity; type: functional
[9] = system: Rattus norvegicus; experiment: Anti-hyperglycemic activity in STZ-induced diabetic rat model assessed as improvement in glucose tolerance level at 30 mg/kg, po measured on day 15; type: functional
[10] = system: Rattus norvegicus; experiment: Anti-hyperglycemic activity in STZ-induced diabetic rat model assessed as improvement in glucose tolerance level at 30 mg/kg, po measured on day 10; type: functional; settings: time 10 day
[11] = system: Mus musculus; experiment: Antidiabetic activity in C57BL/6J mouse assessed as decrease in AUC of glucose at 3 mg/kg, po; type: functional; parameters: scale not given: the % may be the effect or the level left
[12] = biological target: T1, Dipeptidyl peptidase 4; remark: listed apart in the source
Target sequence in this assay (P27487 whole entry): as above

[13] = system: Mus musculus; experiment: Hypoglycemic activity in KKAy mouse assessed as reduction in blood glucose level at 10 mg/kg; type: ADME, organism-based; parameters: scale not given: the % may be the effect or the level left; settings: in vivo
[14] = system: Mus musculus; experiment: Hypoglycemic activity in ICR mouse assessed as reduction in blood glucose level at 1 mg/kg; type: ADME, organism-based; parameters: scale not given: the % may be the effect or the level left; settings: in vivo
[15] = Blood glucose AUC in ICR mouse at 15 mg/kg; settings: in vivo
[16] = system: Mus musculus; experiment: Hypoglycemic activity in C57BL/6J mouse assessed as reduction in blood glucose level at 10 mg/kg, po measured at 20 to 80 mins by OGTT analysis; type: functional; parameters: scale not given: the % may be the effect or the level left; settings: time 20-80 min
[17] = Half life in mouse; type: ADME, organism-based; settings: in vivo
[18] = species on record: Homo sapiens; experiment: Selectivity index, ratio of IC50 for DPP-4 (unknown origin) to IC50 for DPP-8 (unknown origin)
[19] = biological target: T1, Dipeptidyl peptidase 4; experiment: Inhibition of DPP4 (unknown origin) using Gly-Pro-AMC as substrate incubated for 30 mins by spectroscopic analysis
Target sequence in this assay (P27487 whole entry): as above

[20] = biological target: T1, Dipeptidyl peptidase 4; experiment: Inhibition of human recombinant DPP-4 using H-Gly-Pro-aminomethylcoumarin as substrate
Target sequence in this assay (P27487 whole entry): as above

[21] = biological target: T1, Dipeptidyl peptidase 4; experiment: Inhibition of human recombinant DPP-4 using H-Gly-Pro-aminomethylcoumarin as substrate at 100 uM relative to control
Target sequence in this assay (P27487 whole entry, looked up): as the sequence (P27487 whole entry) above

[22] = species on record: Homo sapiens; experiment: Selectivity index, ratio of IC50 for human recombinant DPP-4 to IC50 for human recombinant DPP-8
[23] = species on record: Homo sapiens; experiment: Selectivity index, ratio of IC50 for human recombinant DPP-4 to IC50 for human recombinant DPP-9
[24] = system: Mus musculus; experiment: Hypoglycemic activity in ICR mouse assessed as reduction in blood glucose level at 10 mg/kg; type: ADME, organism-based; parameters: scale not given: the % may be the effect or the level left; settings: in vivo
[25] = Half life in KKAy mouse at 10 to 30 mg/kg; type: ADME, organism-based; settings: in vivo, dose 10-30 mg/kg
[26] = system: Mus musculus; experiment: Hypoglycemic activity in ICR mouse assessed as reduction in blood glucose level at 30 mg/kg; type: ADME, organism-based; parameters: scale not given: the % may be the effect or the level left; settings: in vivo
[27] = system: Mus musculus; experiment: Hypoglycemic activity in KKAy mouse assessed as reduction in blood glucose level at 30 mg/kg; type: ADME, organism-based; parameters: scale not given: the % may be the effect or the level left; settings: in vivo
[28] = system: Mus musculus; experiment: Hypoglycemic activity in ICR mouse assessed as reduction in blood glucose level at 3 mg/kg; type: ADME, organism-based; parameters: scale not given: the % may be the effect or the level left; settings: in vivo
[29] = Oral bioavailability in KKAy mouse at 10 to 30 mg/kg; type: ADME, organism-based; settings: in vivo, dose 10-30 mg/kg

SMILES: CC#CCn1c(N2CCC[C@@H](N)C2)cc(=O)n(Cc2cn(CCC(=O)OC)nn2)c1=O
- Activity [1]: 31.4%
- IC50 [2]: 64 nM
- Activity [3]: 40.4%

SMILES: Cn1c(=O)cc(N2CCC[C@@H](N)C2)n(Cc2ccccc2C#N)c1=O [ALOGLIPTIN]
- Activity [3]: 42.5%

- inhibition [4]: 52.9%
SMILES: Cc1cc(=O)oc2cc(NC(=O)CN3CCNCC3)ccc12

- IC50 [5]: 0.87 nM
SMILES: N[C@@H](CC(=O)N1CCC[C@H]1CNC(=O)c1cc(S(=O)(=O)N2CCCCC2)c(F)cc1F)[C@H]1CCc2cc(F)c(F)cc21

SMILES: CC#CCn1c(N2CCC[C@@H](N)C2)cc(=O)n(Cc2cn(C/C=C/C(=O)O)nn2)c1=O
- Activity [1]: 28.1%
- IC50 [2]: 9.56 nM

SMILES: CC#CCn1c(N2CCC[C@@H](N)C2)cc(=O)n(Cc2cn(CCC(=O)O)nn2)c1=O
- Activity [1]: 21.2%
- IC50 [2]: 12.4 nM

- inhibition [6]: 1.3%
SMILES: CCOC(=O)c1ccc2cc(OCC(=O)N3CCOCC3)c(=O)oc2c1

- IC50 [5]: 0.87 nM
SMILES: N[C@@H](CC(=O)N1CCC[C@H]1CNC(=O)c1cccc(S(N)(=O)=O)c1)[C@H]1CCc2cc(F)c(F)cc21

SMILES: O=C(CN1CCN(c2ccnc3cc(Cl)ccc23)CC1)N1CCOCC1
- Activity [7]: 17.4%

- IC50 [8]: 51.23 µg/mL (≈ 88.3 µM)
SMILES: O=[N+]([O-])c1cccc(/C=N/N2C(c3ccccc3)=Nc3ccc(I)cc3C2Nc2nccs2)c1 (centres undefined)

SMILES: O=C(CN1CCN(c2ccnc3cc(Cl)ccc23)CC1)N1CCCC1
- Activity [9]: 26.4%
- Activity [10]: 14.6%
- Activity [7]: 25.5%

- IC50 [5]: 0.87 nM
SMILES: N[C@@H](CC(=O)N1CCC[C@H]1CNC(=O)c1cc(S(=O)(=O)N2CCOCC2)c(F)cc1F)[C@H]1CCc2cc(F)c(F)cc21

- IC50 [2]: 185 nM
SMILES: CC#CCn1c(N2CCC[C@@H](N)C2)cc(=O)n(Cc2cn(-c3ccccc3)nn2)c1=O

SMILES: NCC1CN(CCCc2ccc3c(c2)OCO3)C(=O)CC1c1cc(F)ccc1F (centres undefined)
- Activity [11]: 38.9%

- IC50 [12]: < 15 nM
SMILES: Cc1c(-c2cc(S(=O)(=O)c3ccccc3)n[nH]2)c(=O)n(C)n1C

- Activity [13]: 30%
- Activity [14]: 24.1%
- glucose AUC [15]: 904 mmol/L/min
SMILES: N#C[C@@H]1CCCN1C(=O)CNC12CC3CC(CC(O)(C3)C1)C2 [VILDAGLIPTIN]

SMILES: N[C@@H](CC(=O)N1CCC[C@H]1CNC(=O)c1cc(S(N)(=O)=O)c(F)cc1F)[C@H]1CCc2cc(F)c(F)cc21
- Activity [16]: 12%
- IC50 [5]: 0.87 nM

- IC50 [5]: 0.87 nM
SMILES: N[C@@H](CC(=O)N1CCC[C@H]1CNC(=O)c1ccc(F)c(S(N)(=O)=O)c1)[C@H]1CCc2cc(F)c(F)cc21

- half-life [17]: < 1440 min
- Ratio IC50 [18]: > 1000
SMILES: N#C[C@@H]1CCCN1C(=O)[C@@H](N)CCC(=O)N1CCn2cc(C(F)(F)F)nc2C1.O=C(O)C(F)(F)F

- inhibition [6]: 26.7%
SMILES: O=C(CNc1cc2ccc3ccccc3c2oc1=O)Nc1ccc(Cl)cc1

SMILES: CS(=O)(=O)c1cccc(C(=O)NC[C@@H]2CCCN2C(=O)C[C@H](N)[C@H]2CCc3cc(F)c(F)cc32)c1
- Activity [16]: 40%
- IC50 [5]: 1.06 nM

- IC50 [19]: 720 nM
SMILES: COC(=O)c1cn([C@@H]2CC[C@H](C(=O)N3CCC(F)(F)C3)C2)nn1

- inhibition [6]: 26.7%
SMILES: Cc1ccc(NC(=O)CNc2cc3ccc4ccccc4c3oc2=O)cc1

- IC50 [19]: 620 nM
SMILES: O=C([C@H]1CC[C@@H](n2cc(-c3ccccc3O)nn2)C1)N1CCC(F)(F)C1

- IC50 [5]: 0.87 nM
SMILES: CCN(CC)S(=O)(=O)c1cccc(C(=O)NC[C@@H]2CCCN2C(=O)C[C@H](N)[C@H]2CCc3cc(F)c(F)cc32)c1

- IC50 [20]: 290 nM
- inhibition [21]: 59%
- Ratio IC50 [22]: > 340
- Ratio IC50 [23]: > 340
SMILES: Cc1ccccc1-c1nc2ccccn2c1CN

- Activity [13]: 19.2%
- Activity [24]: 29.13%
- half-life [25]: 324 min
- Activity [14]: 18.75%
- Activity [26]: 27.57%
- Activity [27]: 26.4%
- Activity [28]: 27.36%
- bioavailability [29]: 21.8%
SMILES: N#C[C@@H]1C[C@H](F)CN1C(=O)[C@@H](N)Cc1ccccc1

- IC50 [8]: 34.69 µg/mL (≈ 197 µM)
SMILES: O=C1O[C@H]([C@@H](O)CO)C(O)=C1O [ASCORBIC ACID]
